Legend:
[1] = test system: Enterobacteriaceae isolates; experiment: Hollow-fiber and chemostat models, strains combined; type: cell-based, E. coli, K. pneumoniae
Experimental: The PK/PD driver of ETX1317 was assessed in the presence of CPD in both hollow-fiber[28]−[31] and chemostat[32]in vitro infection model systems. In all cases, CPD was administered q12h via a 2 h infusion and eliminated with a 2 h half-life, with the concentration of drug exceeding the MIC (the MIC of CPD in the presence of ETX1317 at a 1:2 ratio) for 50% of the dosing interval for each strain. Representative Emax plots are shown graphically for Escherichia coli ARC2687 in the hollow-fiber model and Klebsiella pneumoniae ARC4420 in the chemostat system (Figure 2). […] This could partially be attributed to the distribution of the concentration ranges utilized for the hollow-fiber infection model (HFIM) where most of the data scatter occurred in the efficacious dose range for lower MIC strains. It is important to note that initial evaluation of K. pneumoniae ARC4420 and ARC5118 was completed in the HFIM but rapid degradation of CPD, presumably through accumulation of β-lactamases in the extra-capillary space of the cartridge precluded a reliable assessment of the PK/PD driver with these strains in this model.[32] […] In both the HFIM and chemostat models the optimum critical threshold of ETX1317 was established through iterative Emax fitting of a range of ETX1317 concentrations from 0.5× to 2× the CPD:ETX1317 MIC value. In the HFIM, %Time > ETX1317 CT of 2× MIC provided the highest correlation to observed activity which appeared to be independent to the apparent intrinsic activity of ETX1317 (as reflected by ETX1317 MICBLI of K. pneumoniae ARC4486 vs ARC4488). […] In both models CPD infused alone mimicked vehicle control as expected with similar growth of +2 to 4 log10 CFU/mL.
PK/PD-derived exposure targets for BLIs have utilized various approaches for clinical dose setting. The use of a singular critical threshold value independent of MIC has been used for recent BL/BLI combinations such as ceftazidime/avibactam[34] aztreonam/avibactam,[35] but this has been problematic to correlate activity across a broad range of MICs. More recent work with ceftolozane/tazobactam[36] and other BLI combinations[37],[38] considers a critical threshold value that varies proportionally to the MIC value. […] Convergence of the data to a threshold value related to MIC simplifies dose setting and, in this case, appears to be consistent across a broad range of susceptibility (0.125–1 μg/mL).
Dose range and dose fractionation were performed in hollow-fiber infection model (HFIM) and chemostat (one-compartment) in vitro infection model. […] CPD concentrations were targeted to achieve exposure of ∼50%Time > MIC determined in the presence of ETX1317. […] Bacterial burden (CFU/mL) was serially assessed by sampling (500 μL) from the extra-capillary space of the HFIM cartridge at predetermined time points. […]

Plasma protein binding = type: in vitro ADME, monkey
Experimental: Plasma protein binding was determined by rapid equilibrium dialysis. Plasma was freshly prepared from blood samples drawn in to EDTA (anticoagulant) containing tubes. Plasma was prepared using a table-top centrifuge and spun per instruction of the tube manufacturer and specifications (Beckton, Dickinson and Company, Franklin Lakes, NJ) and placed on ice prior to use.
Pooled plasma samples were centrifuged at 2000 rpm (approximately 1400g) for 15 min at 4 °C to remove debris. Approximately 90% of the clear supernatant fraction was transferred to a separate tube. Samples (500 μL) were then spiked with a 100× stock solution 100 μM, 0.5 mM, and 10 mM ETX1317 in DMSO respectively for 1, 5, and 100 μM final concentrations, transferred to the top of the filter chambers, and allowed to equilibrate for 15 min prior to centrifugation. The filtrate tubes were centrifuged at 14000g for 15 min at 4 °C. Next, 50 μL of the filtrate was precipitated with 300 μL of acetonitrile containing 250 ng/mL of carbutamide as the internal standard and the samples were analyzed by LC/MS/MS analysis.

## CC1=C[C@@H](C(N)=O)N2C[C@@H]1N(O[C@H](F)C(=O)O)C2=O [ETX1317]
[1]; infused alone q12h to a Cmax of 16 μg/mL, 100%Time > MICBLI
  growth: +0.5 log
[1]; with CPD
  % of dosing interval with unbound concentration > 2× MIC associated with reducing bacterial burden below stasis: 50%
[1]; with CPD 50%Time > MIC, in vitro and in vivo models
  % of dosing interval with concentration > 2× MIC for cidal activity: 60%
Plasma protein binding; 1 µM
  Proportion unbound: 77%
Plasma protein binding; 5 µM
  Proportion unbound: 97%

Source: article PMC7297445, “Pharmacokinetic/Pharmacodynamic Determination and Preclinical Pharmacokinetics of the β-Lactamase Inhibitor ETX1317 and Its Orally Available Prodrug ETX0282” (ACS Infectious Diseases, 2020)
